“Also recorded” adds a separate entry of the source. Values belong to the compound of their own block, whether it stands above or below them. Where a SMILES comes first, the peptide text is derived from it. [ ]: non-standard residue; d: D form. αMeF = C[C@](N)(Cc1ccccc1)C(=O)O; Aib = CC(C)(N)C(=O)O
What was measured:
hGLP-1R = target: T1, hGLP-1R (Homo sapiens, UniProt P43220); assay: cAMP functional assay, cells expressing human GLP-1 receptor (primary assay); type: cell-based
T1 construct: expressed in transfected cells
T1 sequence (P43220 24-463): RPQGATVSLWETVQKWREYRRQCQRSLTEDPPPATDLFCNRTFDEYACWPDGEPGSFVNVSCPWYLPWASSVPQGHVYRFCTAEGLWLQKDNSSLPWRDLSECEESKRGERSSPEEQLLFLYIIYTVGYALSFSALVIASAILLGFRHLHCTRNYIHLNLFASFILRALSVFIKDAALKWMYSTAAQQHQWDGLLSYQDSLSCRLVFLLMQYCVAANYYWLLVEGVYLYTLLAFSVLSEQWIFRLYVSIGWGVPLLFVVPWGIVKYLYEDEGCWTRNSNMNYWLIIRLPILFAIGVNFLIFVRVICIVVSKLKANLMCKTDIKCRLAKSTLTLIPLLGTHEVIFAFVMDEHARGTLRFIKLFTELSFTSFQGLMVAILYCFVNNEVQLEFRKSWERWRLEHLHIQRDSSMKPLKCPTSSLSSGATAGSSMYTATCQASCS

hGIP-R = target: T2, hGIP-R (Homo sapiens, UniProt P48546); assay: cAMP functional assay, cells expressing human GIP receptor (primary assay); type: cell-based; settings: n = 2
T2 construct: expressed in transfected cells
T2 sequence (P48546 22-466): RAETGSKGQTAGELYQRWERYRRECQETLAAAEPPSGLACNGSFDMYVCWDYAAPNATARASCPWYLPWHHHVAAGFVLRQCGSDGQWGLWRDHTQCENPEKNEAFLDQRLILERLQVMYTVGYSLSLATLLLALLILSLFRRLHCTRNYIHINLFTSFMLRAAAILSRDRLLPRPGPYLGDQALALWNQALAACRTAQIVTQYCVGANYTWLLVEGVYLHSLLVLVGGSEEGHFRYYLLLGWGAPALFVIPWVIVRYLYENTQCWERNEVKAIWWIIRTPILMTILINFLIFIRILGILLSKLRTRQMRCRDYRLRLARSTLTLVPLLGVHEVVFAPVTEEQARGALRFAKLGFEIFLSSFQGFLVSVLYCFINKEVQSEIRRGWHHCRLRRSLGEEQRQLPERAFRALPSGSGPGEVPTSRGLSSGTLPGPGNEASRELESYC

Neprilysin (rhNEP) = target: T3, Neprilysin (rhNEP) (Homo sapiens, UniProt P08473); assay: neprilysin stability study (LC/MS); type: in vitro ADME
T3 construct: purchased R&D Systems 1182-ZNC-010
T3 sequence (P08473 52-750 limits assumed): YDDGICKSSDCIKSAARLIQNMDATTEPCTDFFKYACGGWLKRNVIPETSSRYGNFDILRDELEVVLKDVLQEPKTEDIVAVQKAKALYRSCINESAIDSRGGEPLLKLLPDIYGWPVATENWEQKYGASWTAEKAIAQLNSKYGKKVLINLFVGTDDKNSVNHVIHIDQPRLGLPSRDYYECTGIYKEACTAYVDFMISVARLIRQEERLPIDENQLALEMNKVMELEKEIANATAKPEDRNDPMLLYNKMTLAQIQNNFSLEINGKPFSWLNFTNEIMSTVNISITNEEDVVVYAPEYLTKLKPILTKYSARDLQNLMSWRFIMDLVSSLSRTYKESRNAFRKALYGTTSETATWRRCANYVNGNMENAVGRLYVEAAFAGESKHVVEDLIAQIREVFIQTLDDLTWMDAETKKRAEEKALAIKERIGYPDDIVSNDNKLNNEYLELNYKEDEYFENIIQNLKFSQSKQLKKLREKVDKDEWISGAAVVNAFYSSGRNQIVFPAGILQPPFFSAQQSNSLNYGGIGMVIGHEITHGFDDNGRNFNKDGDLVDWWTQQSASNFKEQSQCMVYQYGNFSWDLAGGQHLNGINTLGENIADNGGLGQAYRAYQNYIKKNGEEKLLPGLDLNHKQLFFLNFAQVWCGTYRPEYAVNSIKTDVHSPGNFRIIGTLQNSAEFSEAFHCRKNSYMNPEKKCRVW
Procedure: (§1) Peptides for evaluation were prepared to a concentration of 1.0 mg/mL solutions in either pure water, sterile saline for injection (0.9% w/v NaCl/water) or 1× PBS (Dulbecco). 100 μL (100 μg/mL peptide) of these solutions was added to 900 μL of each protease solution. Additional experiments were performed examining protein degradation during exposure to serum and gastric fluid. For serum studies, peptides were incubated with 50% female Sprague-Dawley strain rat serum (SD rat serum). For gastric fluid studies, peptides were incubated 1:1 (volume:volume), fresh rat gastric fluid.
(§2) The peptide and enzyme (or serum or gastric fluid) were co-incubated in a temperature regulated water bath at 37° C. for the duration of the experiment. During each experiment 100 μL aliquots (10 μg peptide) of the incubated peptide-enzyme mixture were withdrawn periodically, quenched by addition of an equal volume of 5% TFA (v/v) in 1:1 water/acetonitrile to arrest proteolytic activity, and analyzed by liquid chromatography-mass spectrometry (LC/MS): Agilent Polaris C8-A column (4.6×100 mm, 3 micron) using a linear binary gradient of 10-90% MeCN (0.1% TFA v/v) in water (0.1% TFA v/v) over 30 minutes at 1.5 mL min^−1 at ambient temperature. Analytes were detected by both UV absorption at 210 nm and ionization using a Waters 3100 mass detector (ESI^+ mode). New peptidic species (fragments) derived from enzymatic cleavage of peptides were analyzed post-process, and their molecular masses were used to identify the precise cleavage position (highlighting the scissile bond in each case).

Chymotrypsin (rhCTRC) [1] = target: T4, Chymotrypsin (rhCTRC) (Homo sapiens, UniProt Q99895); assay: chymotrypsin stability study (LC/MS); type: in vitro ADME; settings: chymotrypsin
T4 construct: purchased R&D Systems 6907-SE-010
T4 sequence (Q99895 30-268): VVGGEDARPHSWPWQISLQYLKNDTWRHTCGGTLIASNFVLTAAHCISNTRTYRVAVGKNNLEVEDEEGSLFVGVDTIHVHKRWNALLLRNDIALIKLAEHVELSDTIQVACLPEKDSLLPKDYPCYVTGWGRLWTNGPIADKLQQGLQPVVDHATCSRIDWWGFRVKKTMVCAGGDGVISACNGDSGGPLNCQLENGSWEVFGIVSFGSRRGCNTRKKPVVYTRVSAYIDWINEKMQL
Procedure: as §1, §2

[2] = target: T5, trypsin from porcine pancreas (Sus scrofa, UniProt P00761); assay: trypsin stability study (LC/MS); type: in vitro ADME
T5 construct: purchased Sigma P7409; host or cells: porcine pancreas
T5 sequence (P00761 9-231): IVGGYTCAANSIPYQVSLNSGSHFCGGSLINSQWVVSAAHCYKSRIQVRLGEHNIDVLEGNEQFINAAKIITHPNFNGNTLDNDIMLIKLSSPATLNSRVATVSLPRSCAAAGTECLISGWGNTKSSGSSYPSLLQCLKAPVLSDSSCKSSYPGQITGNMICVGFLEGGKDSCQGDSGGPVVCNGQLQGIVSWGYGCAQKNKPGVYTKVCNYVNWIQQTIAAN
Procedure: as §1, §2

[3] = serum stability study (LC/MS); type: in vitro ADME; settings: female, Sprague-Dawley; 50% SD rat serum, after 60 hours; read-out: peptide remaining intact
Procedure: as §1
as §2, with “New peptidic species (fragments) derived from enzymatic cleavage of peptides were analyzed post-process, and their molecular masses were used to identify the precise cleavage position (highlighting the scissile bond in each case).” left out

[4] = system: Trypsin, Sigma P7409 (Type II-S); assay: 1 mg/mL lyophilized trypsin from porcine pancreas in 50 mM Tris, 10 mM CaCl2, 150 mM NaCl, 1 mM HCl, pH 7.8; settings: 37° C., up to over 18 hours
[5] = system: Neprilysin (Neutral endopeptidase, rhNEP); assay: 1.0 μg rhNEP in 900 μL assay buffer: 50 mM Tris, 50 mM NaCl, 50 mM NaHCO3, pH 8.3; settings: 37° C., up to 240 hours
Chymotrypsin (rhCTRC) [6] = assay: 1.0 μg rhCTRC in 900 μL assay buffer: 50 mM Tris, 10 mM CaCl2, 150 mM NaCl, 1 mM HCl, pH 7.8; settings: 37° C., up to over 60 hours
Trypsin = assay: 1 mg/mL lyophilized trypsin from porcine pancreas in 50 mM Tris, 10 mM CaCl2, 150 mM NaCl, 1 mM HCl, pH 7.8; settings: 37° C., up to over 18 hours

- potency compared to the GLP-1 comparator peptide, SEQ ID NO:4 (hGLP-1R): equipotent
- EC50 (hGLP-1R; n = 2): 0.0338 nM
- EC50 (hGIP-R): 102 nM
- Neprilysin resistance (Discussion / Description) (Neprilysin (rhNEP); Table 2 description): fully Neprilysin resistant but
- proteolytic degradation over time-course (Neprilysin (rhNEP); neprilysin, 96 hour time-course): no proteolytic degradation
- stability after prolonged exposure (Neprilysin (rhNEP); neprilysin, after 10 days (240 hours)): still stable
- cleavage site observed (Chymotrypsin (rhCTRC) [1]): solely at the Leu26/Val27
- time by which degradation occurred (Chymotrypsin (rhCTRC) [1]; 37° C.): ≤ 48 h
- Trypsin resistance/susceptibility (Discussion / Description) ([2]; Table 2 description): Trypsin susceptibility
- time by which proteolytic degradation occurred (carboxyl side of Lys20, Lys28 and Arg30) ([2]; trypsin, 37° C.): ≤ 90 min
- remaining at 60 h, 100 μg/mL [3]: ~64%
Compound: CC[C@H](C)[C@H](NC(=O)[C@](C)(Cc1ccccc1)NC(=O)[C@H](CCC(=O)O)NC(=O)[C@H](CCCCN)NC(=O)[C@H](C)NC(=O)[C@H](C)NC(=O)[C@H](CCC(N)=O)NC(=O)CNC(=O)[C@H](CCC(=O)O)NC(=O)[C@H](CC(C)C)NC(=O)[C@](C)(Cc1ccccc1)NC(=O)[C@H](CO)NC(=O)[C@H](CO)NC(=O)[C@@H](NC(=O)[C@H](CC(=O)O)NC(=O)[C@H](CO)NC(=O)[C@@H](NC(=O)[C@](C)(Cc1ccccc1)NC(=O)[C@H](CO)NC(=O)CNC(=O)[C@H](CCC(=O)O)NC(=O)C(C)(C)NC(=O)[C@@H](N)Cc1c[nH]cn1)[C@@H](C)O)C(C)C)C(=O)N[C@@H](C)C(=O)N[C@@](C)(Cc1ccccc1)C(=O)N[C@@H](CC(C)C)C(=O)N[C@H](C(=O)N[C@@H](CCCCN)C(=O)NCC(=O)N[C@@H](CCCNC(=N)N)C(N)=O)C(C)C [SEQ ID NO: 38, H-(Aib)^2-EG-(S)^5-(α-MeF)^6-TSDV^10 SS-(α-MeF)^13-LE^15 GQAAK^20 E-(α-MeF)^22-IA-(α-MeF)^25 LVKGR^30] (H-H[Aib]EGS[αMeF]TSDVSS[αMeF]LEGQAAKE[αMeF]IA[αMeF]LVKGR-NH2)

- not cleaved [4]: intact
Compound: H-(Aib)^2-EG-(S)^5-(α-MeF)^6-TSDV^10 SS-(α-MeF)^13-LE^15 GQAAK^20 E-(α-MeF)^22-IA-(α-MeF)^25 L-(Aib)^27-K-(Aib)^29-R^30

- cleaved bond (Chymotrypsin (rhCTRC) [6]): Leu26-Val27, by 48 hours
Compound: H-(Aib)^2-EG-(S)^5-(α-MeF)^6-TSDV^10 SS-(α-MeF)^13-LE^15 GQAAK^20 E-(α-MeF)^22-IA-(α-MeF)^25 LVKGR^30
- not cleaved [5]: no proteolytic degradation over a 96 hour time-course; still stable after 10 days
- cleaved bond (Trypsin): Lys20-E21, by 90 minutes; also recorded: Lys28-G29, by 90 minutes
